Experimental data as given in patent US6177253A, “Screening methods for the identification of anti-HIV compounds employing a cyclosporine-specific monoclonal antibody that cross-reacts with HIV-1 p24” (priority 1998, dated 2001).

What was measured:
Assay type in all cases: binding, BALB/c mice
C4 2.2 = assay: ELISA inhibition by singly modified Cs-derivatives, McAb C4 2.2; conditions: group V; McAb binds selectively to Thr^2 -Cs-BSA coating
Method: (§1) A second ELISA Procedure used conjugates of D-Lys^8 -Cs-BSA and Thr^2 -Cs-BSA for coating (Queeniaux et al., 1987b). An indirect detection system consisting of rabbit anti-mouse Ig followed by alkaline phosphates-conjugated goat anti-rabbit IgG was performed as previously described (Queenlaux et al., 1987b).
(§2) The binding of the 22 McAbs to these two Cs-BSA conjugates was also found to correlate well with their fine specificity patterns, as characterized with a set of 28-36 Cs derivatives. Typical ELISA curves showing McAb binding either to D-Lys^8 -Cs-BSA (panel A) or to Thr^2 -Ca-BSA (panel B) and inhibited by Cs or Cs derivatives are shown in FIGS. 8A-8B, D-Lys^8 -Cs-BSA was subsequently used for coating in the inhibition experiments, except for those McAbs binding selectively to Thr^2 -Cs-BSA (see Table 4 and FIGS. 7A-7C). An example of the binding of 26 Cs derivatives by McAbs belonging to each of the five specificity groups mentioned above is reported in Table 5. The results are expressed as the difference of IC50 (in log10) between the Cs derivatives and Cs. All Cs-derivatives used in this study were selected for having a conserved peptide ring conformation compared with CsA (as determined in NMR or X-ray diffraction).

H6 1.5 = assay: ELISA inhibition by singly modified Cs-derivatives, McAb H6 1.5; conditions: group III; D-Lys^8 -Cs-BSA coating
Method: as §1, §2

G7 1.1 = assay: ELISA inhibition by singly modified Cs-derivatives, McAb G7 1.1; conditions: group I; McAb binds selectively to Thr^2 -Cs-BSA coating
Method: as §1, §2

H4 1.3 = assay: ELISA inhibition by singly modified Cs-derivatives, McAb H4 1.3; conditions: group II; D-Lys^8 -Cs-BSA coating
Method: as §1, §2

B11 1.4 = assay: ELISA inhibition by singly modified Cs-derivatives, McAb B11 1.4; conditions: group IV; D-Lys^8 -Cs-BSA coating
Method: as §1, §2

Compound	log10 difference in the concentrations of Cs-derivatives and unmodified Cs required to achieve 50% inhibition in ELISA, McAb C4 2.2 (C4 2.2)	log10 difference in the concentrations of Cs-derivatives and unmodified Cs required to achieve 50% inhibition in ELISA, McAb H6 1.5 (H6 1.5)	log10 difference in the concentrations of Cs-derivatives and unmodified Cs required to achieve 50% inhibition in ELISA, McAb G7 1.1 (G7 1.1)	log10 difference in the concentrations of Cs-derivatives and unmodified Cs required to achieve 50% inhibition in ELISA, McAb H4 1.3 (H4 1.3)	log10 difference in the concentrations of Cs-derivatives and unmodified Cs required to achieve 50% inhibition in ELISA, McAb B11 1.4 (B11 1.4)
C/C=C/C[C@@H](C)C[C@H]1C(=O)N[C@@H](CC)C(=O)N(C)CC(=O)N(C)[C@@H](CC(C)C)C(=O)N[C@@H](C(C)C)C(=O)N(C)[C@@H](CC(C)C)C(=O)N[C@@H](C)C(=O)N[C@H](C)C(=O)N(C)[C@@H](CC(C)C)C(=O)N(C)[C@@H](CC(C)C)C(=O)N(C)[C@@H](C(C)C)C(=O)N1C [MeBint^1 3'desoxy]	< 0.0 log10	0.0 log10	0.6 log10	1.2 log10	0.4 log10
C/C=C/C[C@@H](C)[C@@H](O)[C@H]1C(=O)N[C@@H](CC)C(=O)N(C)CC(=O)N(C)[C@@H](CC(C)C)C(=O)N[C@@H](C(C)C)C(=O)N(C)[C@@H](CC(C)C)C(=O)N[C@@H](C)C(=O)N[C@H]([C@H](C)O)C(=O)N(C)[C@@H](CC(C)C)C(=O)N(C)[C@@H](CC(C)C)C(=O)N(C)[C@@H](C(C)C)C(=O)N1C [D-Ala^8 D-Thr]	1.2 log10	< 0.0 log10	> 2.0 log10	0.0 log10	0.4 log10
C/C=C/C[C@@H](C)[C@@H](O)[C@H]1C(=O)N[C@@H](CC)C(=O)N(C)CC(=O)N(C)[C@@H](CC(C)C)C(=O)N[C@@H](CCSC)C(=O)N(C)[C@@H](CC(C)C)C(=O)N[C@@H](C)C(=O)N[C@H](C)C(=O)N(C)[C@@H](CC(C)C)C(=O)N(C)[C@@H](CC(C)C)C(=O)N(C)[C@@H](C(C)C)C(=O)N1C [Val^5 Met]	< 0.0 log10	< 0.0 log10	< 0.0 log10	1.5 log10	0.0 log10
C/C=C/C[C@@H](C)[C@@H](O)[C@H]1C(=O)N[C@@H](CC)C(=O)N(C)CC(=O)N(C)[C@@H](CC(C)C)C(=O)N(C)[C@@H](CC(C)C)C(=O)N(C)[C@@H](CC(C)C)C(=O)N[C@@H](C)C(=O)N[C@H](C)C(=O)N(C)[C@@H](CC(C)C)C(=O)N(C)[C@@H](CC(C)C)C(=O)N(C)[C@@H](C(C)C)C(=O)N1C [Val^5 MeLeu]	< 0.0 log10	0.3 log10	1.0 log10	1.2 log10	0.0 log10
C/C=C/C[C@@H](C)[C@@H](O)[C@H]1C(=O)N[C@@H](CC)C(=O)N(C)CC(=O)N(C)[C@@H](CC(C)C)C(=O)N[C@@H](C(C)C)C(=O)N(C)[C@@H](CC(C)C)C(=O)N[C@@H](CC)C(=O)N[C@H](C)C(=O)N(C)[C@@H](CC(C)C)C(=O)N(C)[C@@H](CC(C)C)C(=O)N(C)[C@@H](C(C)C)C(=O)N1C [Ala^7 Abu]	< 0.0 log10	0.0 log10	< 0.0 log10	0.0 log10	0.0 log10
CC[C@@H]1NC(=O)[C@H]([C@H](O)[C@H](C)C/C=C/CO)N(C)C(=O)[C@H](C(C)C)N(C)C(=O)[C@H](CC(C)C)N(C)C(=O)[C@H](CC(C)C)N(C)C(=O)[C@@H](C)NC(=O)[C@H](C)NC(=O)[C@H](CC(C)C)N(C)C(=O)[C@H](C(C)C)NC(=O)[C@H](CC(C)C)N(C)C(=O)CN(C)C1=O [MeBint^1 8'-hydroxy]	0.0 log10	< 0.0 log10	0.0 log10	< 0.0 log10	< 0.0 log10
C/C=C/C[C@@H](C)[C@@H](O)[C@H]1C(=O)N[C@@H](CC)C(=O)N(C)CC(=O)N(C)[C@@H](CC(C)C)C(=O)N[C@@H](C(C)C)C(=O)N(C)[C@@H](CC(C)C)C(=O)N[C@@H](C)C(=O)N[C@H](CO)C(=O)N(C)[C@@H](CC(C)C)C(=O)N(C)[C@@H](CC(C)C)C(=O)N(C)[C@@H](C(C)C)C(=O)N1C [D-Ala^8 D-Ser]	0.3 log10	< 0.0 log10	1.3 log10	0.0 log10	0.1 log10
C/C=C/C[C@@H](C)[C@@H](OC(C)=O)[C@H]1C(=O)N[C@@H](CC)C(=O)N(C)CC(=O)N(C)[C@@H](CC(C)C)C(=O)N[C@@H](C(C)C)C(=O)N(C)[C@@H](CC(C)C)C(=O)N[C@@H](C)C(=O)N[C@H](C)C(=O)N(C)[C@@H](CC(C)C)C(=O)N(C)[C@@H](CC(C)C)C(=O)N(C)[C@@H](C(C)C)C(=O)N1C [MeBint^1 3'-O-acetyl]	0.2 log10	0.6 log10	0.1 log10	1.1 log10	0.7 log10
C/C=C/C[C@@H](C)[C@@H](O)[C@H]1C(=O)N[C@@H](CC)C(=O)N(C)CC(=O)N(C)[C@@H](CC(C)C)C(=O)N[C@@H](C(C)C)C(=O)N(C)[C@@H](C)C(=O)N[C@@H](C)C(=O)N[C@H](C)C(=O)N(C)[C@@H](CC(C)C)C(=O)N(C)[C@@H](CC(C)C)C(=O)N(C)[C@@H](C(C)C)C(=O)N1C [MeLeu^6 McAla]	1.2 log10	2.7 log10	0.7 log10	0.9 log10	0.0 log10
C/C=C/C[C@@H](C)[C@@H](O)[C@H]1C(=O)N[C@@H](CC)C(=O)N(C)C(COC(C)=O)C(=O)N(C)[C@@H](CC(C)C)C(=O)N[C@@H](C(C)C)C(=O)N(C)[C@@H](CC(C)C)C(=O)N[C@@H](C)C(=O)N[C@H](C)C(=O)N(C)[C@@H](CC(C)C)C(=O)N(C)[C@@H](CC(C)C)C(=O)N(C)[C@@H](C(C)C)C(=O)N1C (stereo partly shown) [Sar^3 O-Acetyl-MeSer]	1.5 log10	2.2 log10	1.2 log10	2.1 log10	0.4 log10
C/C=C/C[C@@H](C)[C@@H](O)[C@H]1C(=O)N[C@@H](CC)C(=O)N(C)CC(=O)N(C)[C@@H](C)C(=O)N[C@@H](C(C)C)C(=O)N(C)[C@@H](CC(C)C)C(=O)N[C@@H](C)C(=O)N[C@H](C)C(=O)N(C)[C@@H](CC(C)C)C(=O)N(C)[C@@H](CC(C)C)C(=O)N(C)[C@@H](C(C)C)C(=O)N1C [MeLeu^4 MeAla]	0.1 log10	1.2 log10	< 0.0 log10	1.8 log10	0.3 log10
